Data as given in patent US11345710B2, “Imidazo[1,2-b]pyrimido[4,5-d]pyridazin-5(6H)-ones and the use thereof” (IMPACT THERAPEUTICS (SHANGHAI), INC, priority 2017, dated 2022).
Where two headings read alike, the source gives them in different places.

Columns and labels:
Wee1 kinase (h) = Wee1 kinase (h) (Homo sapiens, UniProt P30291); assay: Wee1 kinase (h) detection method, [γ-33P]-ATP filter assay; assay type: biochemical; conditions: 10 μM ATP, 40 minutes at room temperature
Experimental: Wee1 kinase (h) was incubated with 20 mM Tris/HCl pH 8.5, 0.2 mM EDTA, 500 μM […], 10 mM MgAcetate and 10 μM [γ-^33P]-ATP. Then the stock solution of all compounds under test with 50× concentration in 100% DMSO was added to make the final concentration of 1/0.1/0.01 μM, and then mixed the mixture well. The reaction was initiated by the addition of the Mg/ATP mix. After incubation for 40 minutes at room temperature, the reaction was stopped by the addition of phosphoric acid to a concentration of 0.5%. 10 μL of the reaction liquor was then spotted onto a P30 filtermat and washed four times in 0.425% phosphoric acid and once in methanol prior to drying and scintillation counting. Each compound sample was duplicated in duplicate. The negative control was lack of all the components of Wee1 enzyme, and the positive was addition of 30% phosphoric acid to terminate the reaction. The Wee1 inhibitor AZD1775 was detected at 10/0.01 μM at the same experiment condition.

LoVo cells = assay: MTT based cell viability assay on LoVo cells; conditions: read-out: IC50, growth inhibition on LoVo cells
Experimental: Determination of the Cell Growth Inhibiting Activity of 6-(2,6-dichlorophenyl)-2-((4-(4-methylpiperazin-1-yl)phenyl)amino)imidazo[1,2-b]pyrimido[4,5-d]pyridazin-5(6H)-one and Analogs Thereof on LoVo Cells Using a MTT Based Cell Viability Assay
The thawed LoVo cells were cultured and passaged to the third generation, and the growth state was good and the confluence was about 90%, which began to be used in the experiment. The LoVo cells were digested with trypsin, centrifuged at 800 rpm for 5 min, the supernatant was discarded, resuspended with fresh culture medium, and counted. 6000 Cells are seeded to each well of a 96-well cell culture plate. The cells were incubated at 37° C. in a 5% CO2 cell culture incubator overnight. The tested sample (including the tested compound and the reference compound AZD1775) was diluted continuously to 8 concentrations (the last concentration was negative control of DMSO) with a 1:3 and 1:10 dilution in DMSO respectively: 10 μM, 3.3 μM, 1 μM, 0.33 μM, 0.1 μM, 0.033 μM, 0.01 μM, 0 μM (the final concentration of DMSO was 1%). 5 μL of each concentration was added to 120 μL of culture medium (25 times diluted), and the mixture was shaken well. The overnight cells were taken and the culture medium was removed, 195 μL of fresh culture medium was added to each well, and 5 μL of diluted culture medium containing the corresponding concentration of the tested sample was added respectively, and the culture plate was then placed in the 5% CO2 cell culture incubator at 37° C. for 3 d. After removing the original solution and adding 100 μL of fresh serum-free DMEM culture medium containing MTT (0.5 mg/mL) per well, the culture was continued. The original solution was removed after 4 hrs and 100 μl DMSO was added to each well. The 96-well cell culture plates were shaken away from light for 10 min and readed in a multifunctional reader at 552/630/690 nm to give absorption values (OD values). The data were analyzed using a graphic software (Graph Pad Prism 5.0) and the inhibitory activity of the compound on cell proliferation was plotted in terms of cell survival and compound concentration. The IC50 values were fitted by the S-shaped dose-response curve equation as follows: Y=100/(1+10^(Log C−Log IC50)), where C was the concentration of testing compounds.

NCI-H1299 cells = assay: MTT based cell viability assay on NCI-H1299 cells; conditions: read-out: IC50, growth inhibition on NCI-H1299 cells
Experimental: Determination of the Cell Growth Inhibiting Activity of 6-(2,6-dichlorophenyl)-2-((4-(4-methylpiperazin-1-yl)phenyl)amino)imidazo[1,2-b]pyrimido[4,5-d]pyridazin-5(6H)-one and Analogs on NCI-H1299 Cells Using a MTT Based Cell Viability Assay
The thawed NCI-H1299 cells were cultured and passaged to the third generation, and the growth state was good and the confluence was about 90%, which began to be used in the experiment. The NCI-H1299 cells were digested with trypsin, centrifuged at 800 rpm for 5 min, the supernatant was discarded, resuspended with fresh culture medium, and counted. 1000 Cells are seeded to each well of a 96-well plate. The cells are incubated at 37° C. in a 5% CO2 cell culture incubator overnight. The tested sample (including the tested compound and the reference compound AZD1775) was diluted continuously to 8 concentrations (the last concentration was negative control of DMSO) with a 1:3 and 1:10 dilution in DMSO respectively: 10 μM, 3.3 μM, 1 μM, 0.33 μM, 0.1 μM, 0.033 μM, 0.01 μM, 0 μM (the final concentration of DMSO was 1%). 5 μL of each concentration was added to 120 μL of culture medium (25 times diluted), and the mixture was shaken well. The overnight cells were taken and the culture medium was removed, 195 μL of fresh culture medium was added to each well, and 5 μL of diluted culture medium containing the corresponding concentration of the tested sample was added respectively, and the culture plate was then placed in the 5% CO2 cell culture incubator at 37° C. for 3 d. After removing the original solution and adding 100 μL of fresh serum-free DMEM culture medium containing MTT (0.5 mg/mL) per well, the culture was continued. The original solution was removed after 4 hrs and 100 μl DMSO was added to each well. The 96-well cell culture plates were shaken away from light for 10 min and readed in a multifunctional reader at 552/630/690 nm to give absorption values (OD values). The data were analyzed using a graphic software (Graph Pad Prism 5.0) and the inhibitory activity of the compound on cell proliferation was plotted in terms of cell survival and compound concentration. The IC50 values were fitted by the S-shaped dose-response curve equation as follows: Y=100/(1+10^(Log C−Log IC50)), where C was the concentration of testing compounds.

[1] = Homo sapiens, 72 h, LoVo cells, 3 d, MTT
[2] = Homo sapiens, 72 h, NCI-H1299 cells, 3 d, MTT

Chain of Wee1 kinase (h) (P30291 whole entry): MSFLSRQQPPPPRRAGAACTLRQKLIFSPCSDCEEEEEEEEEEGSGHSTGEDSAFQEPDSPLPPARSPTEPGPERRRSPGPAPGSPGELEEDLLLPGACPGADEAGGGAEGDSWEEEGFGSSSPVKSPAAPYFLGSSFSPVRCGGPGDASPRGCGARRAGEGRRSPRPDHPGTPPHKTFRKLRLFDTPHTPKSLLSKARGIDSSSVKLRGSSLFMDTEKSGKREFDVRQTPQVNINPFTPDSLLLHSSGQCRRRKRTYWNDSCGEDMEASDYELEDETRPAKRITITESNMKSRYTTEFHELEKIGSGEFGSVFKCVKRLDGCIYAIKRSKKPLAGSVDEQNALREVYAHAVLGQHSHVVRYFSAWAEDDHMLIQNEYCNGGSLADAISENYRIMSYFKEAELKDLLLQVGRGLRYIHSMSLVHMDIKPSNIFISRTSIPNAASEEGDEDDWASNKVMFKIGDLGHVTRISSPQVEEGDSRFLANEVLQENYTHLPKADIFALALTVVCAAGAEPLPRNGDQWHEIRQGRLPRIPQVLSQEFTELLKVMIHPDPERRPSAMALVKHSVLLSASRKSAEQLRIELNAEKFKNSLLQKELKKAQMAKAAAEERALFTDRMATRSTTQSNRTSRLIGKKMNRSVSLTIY

Structure (SMILES)	Inh. (%) of Wee1 kinase (Wee1 kinase (h); C 0.01 μm) [%]	Inh. (%) of Wee1 kinase (Wee1 kinase (h); C 1 μm) [%]	IC50 (LoVo cells; [1]) [nM]	IC50 (NCI-H1299 cells; [2]) [nM]	IC50 (LoVo cells; Homo sapiens, LoVo, 72 h) [nM]	IC50 (NCI-H1299 cells; Homo sapiens, NCI-H1299, 72 h) [nM]	IC50 (LoVo cells; LoVo cells, 3 d, MTT) [nM]	IC50 (NCI-H1299 cells; NCI-H1299 cells, 3 d, MTT) [nM]	Inh. (%) of Wee1 kinase (Wee1 kinase (h); C 0.1 μm) [%]
Cc1cc(Nc2ncc3c(=O)n(-c4c(F)cccc4Cl)n4ccnc4c3n2)cc(F)c1N1CCC(N(C)C)CC1 [Example 25, 6-(2-chloro-6-fluorophenyl)-2-((3-fluoro-5-methyl-4-(4-(dimethylamino)piperidin-1-yl)phenyl)amino)imidazo[1,2-b]pyrimido[4,5-d]pyridazin-5(6H)-one]	10	96	144	249					
Cc1cn2c(n1)c1nc(Nc3cc(C)c(N4CCC(N(C)C)CC4)c(F)c3)ncc1c(=O)n2-c1c(Cl)cccc1Cl [Example 59, 6-(2,6-dichlorophenyl)-2-((3-fluoro-5-methyl-4-(4-(dimethylamino)piperidin-1-yl)phenyl)amino)-9-methylimidazo[1,2-b]pyrimido[4,5-d]pyridazin-5(6H)-one]	7		285	220					
Cc1cc(Nc2ncc3c(=O)n(-c4c(Cl)cccc4Br)n4ccnc4c3n2)ccc1N1CCC(N(C)C)CC1 [Example 49, 6-(2-bromo-6-chlorophenyl)-2-((3-methyl-4-(4-(dimethylamino)piperidin-1-yl)phenyl)amino)imidazo[1,2-b]pyrimido[4,5-d]pyridazin-5(6H)-one]		91	272	337					
CN(C)C1CCN(c2ccc(Nc3ncc4c(=O)n(-c5c(Cl)cccc5Cl)n5ccnc5c4n3)cc2Cl)CC1 [Example 35, 6-(2,6-dichlorophenyl)-2-((3-chloro-4-(4-(dimethylamino)piperidin-1-yl)phenyl)amino)imidazo[1,2-b]pyrimido[4,5-d]pyridazin-5(6H)-one]	4	96			302	182			
Cc1cc(Nc2ncc3c(=O)n(-c4c(F)cccc4F)n4ccnc4c3n2)ccc1N1CCN(C)CC1 [Example 2, 6-(2,6-difluorophenyl)-2-((3-methyl-4-(4-methylpiperazin-1-yl)phenyl)amino)imidazo[1,2-b]pyrimido[4,5-d]pyridazin-5(6H)-one]		93	406	652					
Cc1cn2c(n1)c1nc(Nc3ccc(N4CCC(N(C)C)CC4)c(C)c3)ncc1c(=O)n2-c1c(Cl)cccc1Cl [Example 58, 6-(2,6-dichlorophenyl)-2-((3-methyl-4-(4-(dimethylamino)piperidin-1-yl)phenyl)amino)-9-methylimidazo[1,2-b]pyrimido[4,5-d]pyridazin-5(6H)-one]	9		242	151					
Cc1cc(Nc2ncc3c(=O)n(-c4c(C)cccc4Cl)n4ccnc4c3n2)cc(F)c1N1CCN(C)CC1 [Example 54, 6-(2-chloro-6-methylphenyl)-2-((3-fluoro-5-methyl-4-(4-methylpiperazin-1-yl)phenyl)amino)imidazo[1,2-b]pyrimido[4,5-d]pyridazin-5(6H)-one]		91	637	419					
Cc1cc(Nc2ncc3c(=O)n(-c4c(F)cccc4Cl)n4ccnc4c3n2)cc(F)c1N1CCN(C)CC1 [Example 22, 6-(2-chloro-6-fluorophenyl)-2-((3-fluoro-5-methyl-4-(4-methylpiperazin-1-yl)phenyl)amino)imidazo[1,2-b]pyrimido[4,5-d]pyridazin-5(6H)-one]	21	95	138	376					
Cc1cc(Nc2ncc3c(=O)n(-c4c(F)cccc4F)n4ccnc4c3n2)cc(F)c1N1CCN(C)CC1 [Example 19, 6-(2,6-difluorophenyl)-2-((3-fluoro-5-methyl-4-(4-methylpiperazin-1-yl)phenyl)amino)imidazo[1,2-b]pyrimido[4,5-d]pyridazin-5(6H)-one]		92	408	743					
Cc1cc(Nc2ncc3c(=O)n(-c4c(F)cccc4F)n4ccnc4c3n2)cc(Cl)c1N1CCN(C)CC1 [Example 20, 6-(2,6-difluorophenyl)-2-((3-chloro-5-methyl-4-(4-methylpiperazin-1-yl)phenyl)amino) imidazo[1,2-b]pyrimido[4,5-d]pyridazin-5(6H)-one]		77	364	597					
Cc1cc(Nc2ncc3c(=O)n(-c4c(Cl)cccc4Cl)n4ccnc4c3n2)cc2c1C(C)(C)CN(C)C2 [Example 43, 6-(2,6-dichlorophenyl)-2-((2,4,4,4,5-tetramethyl-1,2,3,4-tetrahydroisoquinolin-7-yl)amino)imidazo[1,2-b]pyrimido[4,5-d]pyridazin-5(6H)-one]	9						476	175	
CN1Cc2cc(Nc3ncc4c(=O)n(-c5c(F)cccc5Cl)n5ccnc5c4n3)ccc2C(C)(C)C1 [Example 12, 6-(2-chloro-6-fluorophenyl)-2-((2,4,4-trimethyl-1,2,3,4-tetrahydroisoquinolin-7-yl)amino)imidazo[1,2-b]pyrimido[4,5-d]pyridazin-5(6H)-one]		96	818	445					
Cc1cc(Nc2ncc3c(=O)n(-c4c(C)cccc4Cl)n4ccnc4c3n2)cc(Cl)c1N1CCN(C)CC1 [Example 55, 6-(2-chloro-6-methylphenyl)-2-((3-chloro-5-methyl-4-(4-methylpiperazin-1-yl)phenyl)amino)imidazo[1,2-b]pyrimido[4,5-d]pyridazin-5(6H)-one]	0	89	560	663					46
